Measurements reported in US20240174662A1, “SMALL MOLECULE INHIBITORS OF SALT INDUCIBLE KINASES” (Janssen Biotech, Inc., priority 2021, published 2024).

The molecules below were run against SIK2 (Homo sapiens (Human), UniProt Q9H0K1) (assay: SIK2 Enzymatic Assay Version 2 (High ATP)). Conditions: 3 mM ATP and 200 μM HDAC5tide final, ADP-Glo Max luminescence.
Type: biochemical
Summary of the method: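 Run at room temperature; SIK2 enzyme at 6 nM (2× final) preincubated with compound 30 min before reaction. ADP formation detected by ADP-Glo Max (2 h reagent, 1 h detection) with luminescence read-out.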

SIK2, sequence (Q9H0K1 whole entry, species assumed): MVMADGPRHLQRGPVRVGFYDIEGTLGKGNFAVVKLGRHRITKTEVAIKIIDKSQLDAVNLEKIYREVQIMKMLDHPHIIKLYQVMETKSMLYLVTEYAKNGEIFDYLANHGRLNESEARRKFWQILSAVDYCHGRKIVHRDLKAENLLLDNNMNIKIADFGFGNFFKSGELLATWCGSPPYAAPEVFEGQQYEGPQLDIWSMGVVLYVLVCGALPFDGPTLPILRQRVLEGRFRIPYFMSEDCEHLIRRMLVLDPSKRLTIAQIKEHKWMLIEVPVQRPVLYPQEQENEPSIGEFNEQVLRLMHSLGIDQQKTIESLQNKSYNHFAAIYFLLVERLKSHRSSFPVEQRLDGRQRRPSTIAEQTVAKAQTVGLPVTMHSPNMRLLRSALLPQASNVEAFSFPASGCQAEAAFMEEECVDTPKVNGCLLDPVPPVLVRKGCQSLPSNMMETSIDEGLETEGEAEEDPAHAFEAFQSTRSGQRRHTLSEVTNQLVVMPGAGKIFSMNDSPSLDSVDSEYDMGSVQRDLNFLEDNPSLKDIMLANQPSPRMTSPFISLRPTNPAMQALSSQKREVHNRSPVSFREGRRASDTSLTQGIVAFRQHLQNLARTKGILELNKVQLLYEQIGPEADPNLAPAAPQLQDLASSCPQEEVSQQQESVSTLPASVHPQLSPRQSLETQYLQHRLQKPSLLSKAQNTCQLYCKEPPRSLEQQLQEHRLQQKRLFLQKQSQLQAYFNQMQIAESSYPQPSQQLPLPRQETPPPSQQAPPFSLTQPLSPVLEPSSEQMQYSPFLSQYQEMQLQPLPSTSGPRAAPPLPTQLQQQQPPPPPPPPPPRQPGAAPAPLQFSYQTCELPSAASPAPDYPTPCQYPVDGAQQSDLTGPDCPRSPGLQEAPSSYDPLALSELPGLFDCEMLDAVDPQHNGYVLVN

SMILES	IC50 [nM]
CCN1CC[C@@H]1COc1cnn(C)c1-c1ccn2nc(Nc3cc(C)nc(C)n3)cc2c1 [Example 62, N-(2,6-dimethylpyrimidin-4-yl)-5-[4-[[(2R)-1-ethylazetidin-2-yl]methoxy]-2-methyl-pyrazol-3-yl]pyrazolo[1,5-a]pyridin-2-amine]	0.9
Cc1cc(Nc2cc3cc(-c4c(OC[C@H]5CCN5C)cnn4C)ccn3n2)nc(C(F)(F)F)n1 [Example 63, 5-[2-methyl-4-[[(2R)-1-methylazetidin-2-yl]methoxy]pyrazol-3-yl]-N-[6-methyl-2-(trifluoromethyl)pyrimidin-4-yl]pyrazolo[1,5-a]pyridin-2-amine]	1.1
Cc1nccc(Nc2cc3cc(-c4c(OC[C@H]5CCN5C)cnn4C)ccn3n2)n1 [Example 64, 5-[2-methyl-4-[[(2R)-1-methylazetidin-2-yl]methoxy]pyrazol-3-yl]-N-(2-methylpyrimidin-4-yl)pyrazolo[1,5-a]pyridin-2-amine]	2
CCN1CC[C@@H]1COc1cnn(C)c1-c1ccn2nc(Nc3ccnc(C)n3)cc2c1 [Example 65, 5-[4-[[(2R)-1-ethylazetidin-2-yl]methoxy]-2-methyl-pyrazol-3-yl]-N-(2-methylpyrimidin-4-yl)pyrazolo[1,5-a]pyridin-2-amine]	< 0.847
CCN1CC[C@@H]1COc1cnn(C)c1-c1ccn2nc(NC(=O)[C@@H]3C[C@H]3C)cc2c1 [Example 66, (1R,2R)—N-[5-[4-[[(2R)-1-ethylazetidin-2-yl]methoxy]-2-methyl-pyrazol-3-yl]pyrazolo[1,5-a]pyridin-2-yl]-2-methyl-cyclopropanecarboxamide]	1.4
CCN1CC[C@@H]1COc1cnn(C)c1-c1ccn2nc(Nc3ccc(C)nn3)cc2c1 [Example 68, 5-[4-[[(2R)-1-ethylazetidin-2-yl]methoxy]-2-methyl-pyrazol-3-yl]-N-(6-methylpyridazin-3-yl)pyrazolo[1,5-a]pyridin-2-amine]	< 0.847
CN1CC[C@@H]1COc1cnn(C)c1-c1ccn2nc(NC(=O)[C@@H]3C[C@@H]3F)cc2c1 [Example 69, (1S,2S)-2-fluoro-N-[5-[2-methyl-4-[[(2R)-1-methylazetidin-2-yl]methoxy]pyrazol-3-yl]pyrazolo[1,5-a]pyridin-2-yl]cyclopropanecarboxamide]	30.3
CN1CC[C@@H]1COc1cnn(C)c1-c1ccn2nc(NC(=O)C3CC3(F)F)cc2c1 (stereo partly drawn) [Example 72, 2,2-difluoro-N-[5-[2-methyl-4-[[(2R)-1-methylazetidin-2-yl]methoxy]pyrazol-3-yl]pyrazolo[1,5-a]pyridin-2-yl]cyclopropanecarboxamide]	52.1
CCN1CC[C@@H]1COc1cnn(C)c1-c1ccn2nc(Nc3cc(C)nc(C(F)(F)F)n3)cc2c1 [Example 73, 5-[4-[[(2R)-1-ethylazetidin-2-yl]methoxy]-2-methyl-pyrazol-3-yl]-N-[6-methyl-2-(trifluoromethyl)pyrimidin-4-yl]pyrazolo[1,5-a]pyridin-2-amine]	< 0.847
Cc1onc(O[C@@H]2CCNC2)c1-c1ccn2nc(NC(=O)C3CC3)cc2c1 [Example 74, N-[5-[5-methyl-3-[(3R)-pyrrolidin-3-yl]oxy-isoxazol-4-yl]pyrazolo[1,5-a]pyridin-2-yl]cyclopropanecarboxamide]	144
Cc1onc(O[C@H]2CCNC2)c1-c1ccn2nc(NC(=O)C3CC3)cc2c1 [Example 75, N-[5-[5-methyl-3-[(3S)-pyrrolidin-3-yl]oxy-isoxazol-4-yl]pyrazolo[1,5-a]pyridin-2-yl]cyclopropanecarboxamide]	35
Cc1onc(O[C@H]2CNC[C@H]2F)c1-c1ccn2nc(NC(=O)C3CC3)cc2c1 [Example 80, N-[5-[3-[(3S,4R)-4-fluoropyrrolidin-3-yl]oxy-5-methyl-isoxazol-4-yl]pyrazolo[1,5-a]pyridin-2-yl]cyclopropanecarboxamide]	146
CO[C@H]1CNC[C@H]1Oc1noc(C)c1-c1ccn2nc(NC(=O)C3CC3)cc2c1 [Example 88, N-[5-[3-[(3R,4S)-4-methoxypyrrolidin-3-yl]oxy-5-methyl-isoxazol-4-yl]pyrazolo[1,5-a]pyridin-2-yl]cyclopropanecarboxamide]	11.5

Further lines, results first:

IC50 [nM]	SMILES
12.2	COC1(COc2noc(C)c2-c2ccn3nc(NC(=O)C4CC4)cc3c2)CNC1 [Example 76, N-[5-[3-[(3-methoxyazetidin-3-yl)methoxy]-5-methyl-isoxazol-4-yl]pyrazolo[1,5-a]pyridin-2-yl]cyclopropanecarboxamide]
12.9	Cc1onc(OCC2(C#N)CNC2)c1-c1ccn2nc(NC(=O)C3CC3)cc2c1 [Example 77, N-[5-[3-[(3-cyanoazetidin-3-yl)methoxy]-5-methyl-isoxazol-4-yl]pyrazolo[1,5-a]pyridin-2-yl]cyclopropanecarboxamide]
120	Cc1onc(OC[C@H]2CN(C)CCO2)c1-c1ccn2nc(NC(=O)C3CC3)cc2c1 [Example 79, N-[5-[5-methyl-3-[[(2R)-4-methylmorpholin-2-yl]methoxy]isoxazol-4-yl]pyrazolo[1,5-a]pyridin-2-yl]cyclopropanecarboxamide]
9.7	Cc1onc(OC[C@]23CN[C@H](CO2)C3)c1-c1ccn2nc(NC(=O)C3CC3)cc2c1 [Example 81, N-[5-[5-methyl-3-[[(1S,4S)-5-oxa-2-azabicyclo[2.2.1]heptan-4-yl]methoxy]isoxazol-4-yl]pyrazolo[1,5-a]pyridin-2-yl]cyclopropanecarboxamide]
3950	Cc1onc(O[C@H]2CNC[C@@H]2F)c1-c1ccn2nc(NC(=O)C3CC3)cc2c1 [Example 82, N-[5-[3-[(3S,4S)-4-fluoropyrrolidin-3-yl]oxy-5-methyl-isoxazol-4-yl]pyrazolo[1,5-a]pyridin-2-yl]cyclopropanecarboxamide]
10.9	Cc1onc(OCC2(F)CNC2)c1-c1ccn2nc(NC(=O)C3CC3)cc2c1 [Example 83, N-[5-[3-[(3-fluoroazetidin-3-yl)methoxy]-5-methyl-isoxazol-4-yl]pyrazolo[1,5-a]pyridin-2-yl]cyclopropanecarboxamide]
204	Cc1onc(OCC2(F)CN(C)C2)c1-c1ccn2nc(NC(=O)C3CC3)cc2c1 [Example 84, N-[5-[3-[(3-fluoro-1-methyl-azetidin-3-yl)methoxy]-5-methyl-isoxazol-4-yl]pyrazolo[1,5-a]pyridin-2-yl]cyclopropanecarboxamide]
32.1	Cc1onc(O[C@@H]2CN[C@H](C)C2)c1-c1ccn2nc(NC(=O)C3CC3)cc2c1 [Example 85, N-[5-[5-methyl-3-[(3S,5R)-5-methylpyrrolidin-3-yl]oxy-isoxazol-4-yl]pyrazolo[1,5-a]pyridin-2-yl]cyclopropanecarboxamide]
1.3	Cc1onc(OC[C@H]2CNCC(C)(C)O2)c1-c1ccn2nc(NC(=O)C3CC3)cc2c1 [Example 86, N-[5-[3-[[(2R)-6,6-dimethylmorpholin-2-yl]methoxy]-5-methyl-isoxazol-4-yl]pyrazolo[1,5-a]pyridin-2-yl]cyclopropanecarboxamide]
16.5	Cc1onc(OC[C@H]2CCN2C)c1-c1ccn2nc(NC(=O)C3CC3)cc2c1 [Example 87, N-[5-[5-methyl-3-[[(2R)-1-methylazetidin-2-yl]methoxy]isoxazol-4-yl]pyrazolo[1,5-a]pyridin-2-yl]cyclopropanecarboxamide]
